{
  "source": "paper PMC6423129",
  "about": "“Activity and structural analysis of GRL-117C: a novel small molecule CCR5 inhibitor active against R5-tropic HIV-1s” (Scientific Reports, 2019)",
  "key": {"HIV-1YU2": {"tested_on": "HIV-1YU2", "assay": "TZM-bl single-round infection assay, HIV-1YU2", "assay_type": "cell-based", "conditions": "Human immunodeficiency virus 1, YU2, drug-sensitive, mean ± SD", "experimental": "(§1) MAGI-CCR5 cells[18] were maintained in DMEM supplemented with 10% fetal calf serum (FCS: Gemini Bio-Products, West Sacramento, CA), 200 μg/ml G418, 100 μg/ml hygromycin B, and 100 μg/ml zeomycin. The Chinese hamster ovary (CHO) cells expressing CCR5[19] were maintained in Ham’s F-12 medium (GIBCO-BRL, Rockville, MD) supplemented with 10% FCS, 50 U/ml penicillin, and 50 μg/ml streptomycin in the presence of 5 μg/ml blasticidin S hydrochloride. TZM-bl cells were obtained from the NIH AIDS Reagent Program, and were cultured in DMEM with 10% FCS. Peripheral blood mononuclear cells (PBMCs) were isolated from buffy coats of HIV-1 seronegative individuals, and were activated with 10 μg/ml phytohemagglutinin (PHA) prior to use[16]. A laboratory wild-type R5-HIV-1 strain (HIV-1Ba-L)[37] was employed for drug susceptibility assays. AD101 (experimental CCR5 inhibitor) and VVC-resistant HIV clones[7],[8] were provided by Dr. John P. Moore of Cornell University for this study. The clones were propagated with activated PBMCs, and were used for the assays. A clinical HIV-1 strain, HIV-1KP-5pc, and an MVC-resistant isolate, HIV-1KP-5mvcR, were prepared and used for antiviral assays, as previously described[10],[38]. The following reagents (plasmids) for T/F HIV-1 viruses[22],[24] were obtained through the NIH AIDS Reagent Program, Division of AIDS, NIAID, NIH: pCH040.c/2625 (cat# 11740), pCH106.c/2633 (cat# 11743), pTHRO.c/2626 (cat# 11745), and pCH058.c/2960 (cat# 11856), from Dr. John Kappes and Dr. Christina Ochsenbauer.\n(§2) Antiviral assays using PHA-PBMCs (p24 assay) were conducted as previously reported[16],[38]. In brief, PHA-PBMCs (1 × 10^6/ml) were exposed to 50 TCID50 of HIV-1Ba-L or drug-resistant HIV-1 infectious clones in the presence or absence of various concentrations of drugs; 10-fold serial dilutions were performed in 96-well microculture plates. The amount of p24 antigens produced by the cells was determined on day 7 in the culture via a commercially available ELISA kit (PerkinElmer). The p24 production level in drug-free control cell cultures was used as the reference. […] Antiviral assays using MAGI-CCR5 cells (MAGI assay) were conducted as previously reported[16],[39]. Single-round virus infection assays using TZM-bl cells infected with R5-HIV-1s (HIV-1YU2, HIV-1KP-5pc, and HIV-1KP-5mvcR)[10] were also conducted as previously described."}, "[1]": {"tested_on": "CC101.19 cl.7 (AD101 resistant)", "assay": "microbe, parasite or virus in culture", "assay_type": "cell-based, HIV-1", "experimental": "as §1, §2"}, "[2]": {"tested_on": "D1/85.16 cl.23 (VVC resistant)", "assay": "microbe, parasite or virus in culture", "assay_type": "cell-based, HIV-1", "experimental": "as §1, §2"}, "pCH040.c/2625": {"tested_on": "pCH040.c/2625", "assay": "MAGI assay, T/F HIV-1 clone pCH040.c/2625", "assay_type": "cell-based", "conditions": "Human immunodeficiency virus 1, MAGI", "excerpt": "(§3) We also examined the activity of GRL-compounds against Transmitter/founder (T/F) HIV-1 viruses. T/F viruses are involved in the initial infection. It is considered that T/F viruses virtually always use CCR5 rather than CXCR4 and infect T cells but not macrophages because […] of CD4 is needed to mediate virus entry for the initial transmission[20]–[24]. […] We obtained four HIV-1 T/F infectious clones. We determined the antiviral activity of GRL-117C, GRL-10007C and GRL-10018C on these HIV-1 clones using MAGI assay.\nas §1, with “A clinical HIV-1 strain, HIV-1KP-5pc, and an MVC-resistant isolate, HIV-1KP-5mvcR, were prepared and used for antiviral assays, as previously described[10],[38].” left out\nas §2"}, "R5-HIV-1BaL": {"tested_on": "R5-HIV-1BaL", "assay": "p24 assay using PBMCs and R5-HIV-1BaL", "assay_type": "cell-based", "conditions": "Human immunodeficiency virus 1, BAL, PBMC, 168 h, Ba-L (PBMCs), day 7", "experimental": "as §1, §2"}, "pTHRO.c/2626": {"tested_on": "pTHRO.c/2626", "assay": "MAGI assay, T/F HIV-1 clone pTHRO.c/2626", "assay_type": "cell-based", "conditions": "Human immunodeficiency virus 1, MAGI", "excerpt": "as §3\nas §1, with “A clinical HIV-1 strain, HIV-1KP-5pc, and an MVC-resistant isolate, HIV-1KP-5mvcR, were prepared and used for antiviral assays, as previously described[10],[38].” left out\nas §2"}, "HIV-1KP-5mvcR": {"tested_on": "HIV-1KP-5mvcR", "assay": "TZM-bl single-round infection assay, MVC-resistant HIV-1KP-5mvcR", "assay_type": "cell-based", "experimental": "as §1, §2"}, "[3]": {"conditions": "Human immunodeficiency virus 1, TZM-bl"}},
  "data": [
    {"smiles": "C=CCN(C(=O)OCc1ccc([N+](=O)[O-])cc1)C1CC2CCC(C1)N2CCC(C)(CN(C)S(=O)(=O)c1ccccc1)c1ccccc1", "note": "(stereo not drawn) [GRL-117C]", "values": [
      {"measurement": "IC50", "setting": "HIV-1YU2", "value": "68 ± 8.8", "unit": "nM"},
      {"measurement": "IC90", "setting": "HIV-1YU2", "value": "> 100", "unit": "nM"},
      {"measurement": "IC50", "setting": "[1]; CC101.19 cl.7 (AD101 resistant)", "value": 32.5, "unit": "nM"},
      {"measurement": "IC90", "setting": "[1]; Human immunodeficiency virus 1", "value": 296, "unit": "nM"},
      {"measurement": "IC50", "setting": "[1]; Human immunodeficiency virus 1, CC101.19 cl.7 (AD101 resistant)", "value": "< 40", "unit": "nM"},
      {"measurement": "IC50", "setting": "[2]; D1/85.16 cl.23 (VVC resistant)", "value": 29.8, "unit": "nM"},
      {"measurement": "IC90", "setting": "[2]; Human immunodeficiency virus 1", "value": 415, "unit": "nM"},
      {"measurement": "IC50", "setting": "[2]; Human immunodeficiency virus 1, D1/85.16 cl.23 (VVC resistant)", "value": "< 40", "unit": "nM"},
      {"measurement": "IC50", "setting": "pCH040.c/2625", "value": "2 ± 0.6", "unit": "nM"},
      {"measurement": "IC50", "setting": "R5-HIV-1BaL", "value": 8.1, "unit": "nM"},
      {"measurement": "IC90", "setting": "R5-HIV-1BaL", "value": 48.3, "unit": "nM"},
      {"measurement": "IC50", "setting": "pTHRO.c/2626", "value": "2.1 ± 0.2", "unit": "nM"},
      {"measurement": "IC50 against HIV-1KP-5mvcR relative to that of MVC", "setting": "HIV-1KP-5mvcR; 686 nM vs MVC 41 nM", "value": "more than 10 fold"},
      {"measurement": "IC50", "setting": "HIV-1KP-5mvcR; [3]", "value": "686 ± 89", "unit": "nM"},
      {"measurement": "IC90", "setting": "HIV-1KP-5mvcR; [3]", "value": "> 100", "unit": "nM"}
    ]}
  ]
}
